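In this assay, cells in 96-well plates receive the compound at five concentrations for 48 hours. Endpoints are linearly interpolated between the surrounding concentrations. GI50: concentration for 50% inhibition of growth.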 Active and inactive are the calls of the source. Cut-off read from the data, not from the text of the source: active = GI50 up to about 1.1 µM and inactive = higher.
Experiments:
Assay in all cases: NCI-60 cell line screen, 48 h
BT-549 = system: BT-549
HL-60 = system: HL-60
HOP-62 = system: HOP-62
HT-29 = system: HT-29
Hs-578T = system: Hs-578T
IGROV-1 = system: IGROV-1
K562 = system: K562
KM12 = system: KM12
M14 = system: M14
NCI-H226 = system: NCI-H226
NCI-H522 = system: NCI-H522
PC-3 = system: PC-3
SF-268 = system: SF-268
SF-295 = system: SF-295
SF-539 = system: SF-539
SK-MEL-28 = system: SK-MEL-28
SN12C = system: SN12C
SW-620 = system: SW-620
UO-31 = system: UO-31
MDA-MB-231 = system: MDA-MB-231

Measured: GI50

O=C(O)c1cc(CCc2cc(O)ccc2O)ccc1O
inactive: BT-549 > 100 µM | HL-60 30.6 µM | HOP-62 > 100 µM | HT-29 > 100 µM | Hs-578T > 100 µM | IGROV-1 > 100 µM | K562 37.2 µM | KM12 > 100 µM | M14 > 100 µM | NCI-H226 > 100 µM | NCI-H522 > 100 µM | PC-3 > 100 µM | SF-268 > 100 µM | SF-295 > 100 µM | SF-539 > 100 µM | SK-MEL-28 > 100 µM | SN12C > 100 µM | SW-620 39.2 µM | UO-31 > 100 µM

CCC1(O)CC2CC(=O)OC2C1O (centres undefined)
inactive: HOP-62 > 100 µM | HT-29 > 100 µM | Hs-578T > 100 µM | IGROV-1 > 100 µM | K562 > 100 µM | KM12 > 100 µM | M14 > 100 µM | MDA-MB-231 > 100 µM | NCI-H226 > 100 µM | NCI-H522 > 100 µM | PC-3 > 100 µM | SF-268 > 100 µM | SF-295 > 100 µM | SF-539 > 100 µM | SK-MEL-28 > 100 µM | SW-620 > 100 µM | UO-31 > 100 µM

O=C1c2ccccc2-n2c1nc1ccc(Cl)cc1c2=O
inactive: BT-549 > 100 µM | HOP-62 30.8 µM | HT-29 > 100 µM | IGROV-1 78.2 µM | K562 14.3 µM | KM12 > 100 µM | M14 > 100 µM | MDA-MB-231 62.1 µM | NCI-H226 > 100 µM | PC-3 > 100 µM | SF-295 42.3 µM | SF-539 > 100 µM | SN12C > 100 µM | SW-620 > 100 µM | UO-31 59.4 µM

C/C(=C\c1ccccc1)C(=O)NCc1ccc(C(=O)NCCC(C)C)cc1
inactive: BT-549 33.8 µM | HOP-62 18.2 µM | HT-29 41.8 µM | IGROV-1 68.7 µM | K562 > 100 µM | KM12 > 100 µM | M14 > 100 µM | MDA-MB-231 85.3 µM | NCI-H226 40.5 µM | NCI-H522 > 100 µM | PC-3 > 100 µM | SF-268 42.6 µM | SF-295 37 µM | SF-539 32.9 µM | SK-MEL-28 > 100 µM | SN12C 52.7 µM | SW-620 > 100 µM | UO-31 37.8 µM

O=C(N/N=C/c1ccc(Cl)cc1)c1ccccc1Nc1ccccc1C(=O)N/N=C/c1ccc(Cl)cc1
inactive: BT-549 > 100 µM | HOP-62 > 100 µM | HT-29 > 100 µM | IGROV-1 > 100 µM | K562 > 100 µM | KM12 > 100 µM | M14 33 µM | MDA-MB-231 91.6 µM | NCI-H226 > 100 µM | PC-3 > 100 µM | SF-268 > 100 µM | SF-295 54 µM | SK-MEL-28 > 100 µM | SN12C > 100 µM | SW-620 > 100 µM | UO-31 > 100 µM

CCOC(=O)Cn1nc2ccc(Nc3c(C)[n+]([O-])c4cc(F)c(OCC)cc4[n+]3[O-])cc2n1
inactive: HL-60 > 100 µM | HOP-62 33 µM | HT-29 > 100 µM | Hs-578T 40.7 µM | IGROV-1 > 100 µM | K562 > 100 µM | KM12 > 100 µM | M14 > 100 µM | MDA-MB-231 46.8 µM | NCI-H226 > 100 µM | NCI-H522 > 100 µM | PC-3 > 100 µM | SF-268 50.9 µM | SF-295 44.2 µM | SF-539 83 µM | SK-MEL-28 > 100 µM | SW-620 > 100 µM | UO-31 > 100 µM

CCOC(=O)C1C(C(C)C)C2(C#N)C(=N)OC1(C)C2(C#N)C#N (centres undefined)
inactive: HL-60 30 µM | HT-29 82 µM | Hs-578T > 100 µM | IGROV-1 88.3 µM | K562 30.8 µM | KM12 > 100 µM | M14 > 100 µM | MDA-MB-231 > 100 µM | NCI-H226 56.4 µM | NCI-H522 26 µM | PC-3 > 100 µM | SF-268 > 100 µM | SF-295 > 100 µM | SF-539 > 100 µM | SK-MEL-28 > 100 µM | SN12C 65.8 µM | SW-620 62.1 µM | UO-31 > 100 µM

N#CCc1nc2cc(C(F)(F)F)ccc2s1
inactive: BT-549 31 µM | HOP-62 73.3 µM | HT-29 37.7 µM | KM12 64.6 µM | MDA-MB-231 95.1 µM | NCI-H226 57.8 µM | NCI-H522 11.1 µM | SF-268 34.8 µM | SF-295 49.4 µM | SF-539 51.8 µM | SN12C 45.5 µM | SW-620 56.4 µM

COc1ccc2nc3ccc(OC)cc3c(SCC3CO3)c2c1 (centres undefined)
inactive: BT-549 15.8 µM | HOP-62 44.6 µM | K562 8.59 µM | KM12 16.1 µM | M14 14.4 µM | MDA-MB-231 15 µM | NCI-H226 34.4 µM | NCI-H522 13 µM | PC-3 14.9 µM | SF-268 13.2 µM | SF-295 60.7 µM | SF-539 10.8 µM | SK-MEL-28 17.7 µM | SN12C 13.8 µM | SW-620 11.1 µM | UO-31 12.3 µM

Cc1cc2c3ccccc3[nH]c2c2ccnc(C)c12
inactive: HL-60 2.07 µM | HOP-62 13.6 µM | HT-29 3.55 µM | Hs-578T 13.6 µM | IGROV-1 15.2 µM | K562 2.22 µM | KM12 10.6 µM | M14 1.84 µM | MDA-MB-231 4.08 µM | NCI-H226 13.4 µM | NCI-H522 2.65 µM | PC-3 10.2 µM | SF-268 17.6 µM | SF-295 20 µM | SF-539 2.76 µM | SK-MEL-28 1.77 µM | SN12C 5.56 µM | SW-620 2.47 µM | UO-31 14.2 µM

O=C1CS[C@@](CC(c2ccc(Cl)cc2)c2ccc(Cl)cc2)(c2ccc(Cl)cc2)N1
inactive: BT-549 49.8 µM | HL-60 3.8 µM | HOP-62 14.2 µM | HT-29 9.55 µM | Hs-578T 38.2 µM | IGROV-1 26.4 µM | K562 5.15 µM | KM12 13.4 µM | M14 11.8 µM | NCI-H226 9.75 µM | NCI-H522 6.28 µM | PC-3 4.68 µM | SF-268 17.5 µM | SF-295 5.08 µM | SF-539 22.8 µM | SK-MEL-28 43 µM | SN12C 2.16 µM | SW-620 18.2 µM | UO-31 25.1 µM

N#CCCC(CC#N)N1CCN(C(CC#N)CCC#N)CC1 (centres undefined)
inactive: BT-549 > 100 µM | HL-60 > 100 µM | HOP-62 > 100 µM | HT-29 > 100 µM | IGROV-1 > 100 µM | K562 > 100 µM | M14 > 100 µM | NCI-H226 > 100 µM | NCI-H522 > 100 µM | PC-3 > 100 µM | SF-268 > 100 µM | SF-295 > 100 µM | SF-539 > 100 µM | SK-MEL-28 > 100 µM | SN12C > 100 µM | SW-620 > 100 µM | UO-31 > 100 µM
